Test results: patent US20220015355A1, “NOVEL CARRIER FLUIDS FOR LIQUID FUNGAL SPORE FORMULATIONS” (priority 2018, published 2022)
Like-named read-outs stand apart in the source and are kept apart here. Marks after values point to notes of the source that are not given here.

Assays:
[1] = tested on: P. lilacinum strain 251 spores; test: spore viability (germination rate on agar) of P. lilacinum spores in carrier fluid after storage at 30° C.; assay type: cell-based, Purpureocillium lilacinum; settings: for decline in spore viability at day 1 and after storage: fluids not within the scope of the invention
Description: 3 g of P. lilacinum strain 251 pure spore powder were transferred into a formulation vessel (IKA Type DT-20 mixing vessel with dispersion tool for Ultra Turrax) using a sterile spoon. 12 mL of fluid were added into the respective formulation vessel and dispersed using ultra turrax tube drive control for 1 min at 3000 rpm; change direction after 30 sec. After this 2.8 mL were transferred in four sample bottles (Wheaton Serum vial, Type I) leaving little headspace and closed tight using crimpneck caps (Macherey—Nagel type N 13) Afterwards all sample bottles were transferred to an incubator set at 30° C. and stored for a given time.
In regular intervals a sample was retrieved from the storage location and analyzed for spore viability. Therefore the original samples were thoroughly homogenized. Aliquots of 0.25 g or […] of each sample are transferred into 50 mL falcon tubes. The tubes were filled up to 25 g using a sterile aqueous solution containing 2% Tween 80 and homogenized by vortexing to achieve the first dilution step (1:100 dilution). This dilution is used for further dilution and spotting on agar.
For evaluation of spore germination rate prepare a 1:30000 dilution based on the 1:100 dilution achieved by multiple automated dilution (pipetting robot, 96 well plate). Afterwards 12×12 cm agar plates are taken and spotted with 10 times […] of each sample using an automated 12-Channel pipet. Wait until liquid is soaked up by agar and transfer agar plate to an incubator and incubate at 25° C. for 17 hours. Open the plate and place it under the microscope. Randomly choose one area per spot and record the number of germinated and non-germinated spores that are within the designated field. At least 200 spores per sample need to be evaluated. If needed count more than one field per spot.

[2] = tested on: Isaria fumosorosea spores; test: spore viability of Isaria fumosorosea spores in carrier fluid after storage, Method 2 (flow cytometry); assay type: cell-based
Description: Method 2: 0.5 g of Isaria fumosoresea pure spore powder were transferred into an Erlenmeyer flask using a sterile spoon. 24.5 mL of fluid were dispersed using Ultra-Turrax (IKA; Type T 25 D) for 1 min at 3,000 rpm. After this, 2.0 mL were transferred in 20 sample bottles (Wheaton Serum vial, Type I) leaving little headspace and closed tight using crimpneck caps (Macherey—Nagel type N 13). Afterwards all sample bottles were transferred to an incubator set at 30° C. and stored for a given time.
In regular intervals a sample was retrieved from the storage location and analyzed for spore viability. For this purpose, the original samples were thoroughly homogenized. Aliquots of 0.5 g of each sample were transferred into 100 mL-Erlenmeyer flask. The flasks were filled up to 50 g using a sterile aqueous solution containing 0.1% Break Thru® 5240 (Evonik, Industries) and homogenized on a magnetic stirrer (Thermo Fisher Scientific: Cimarec™) at least for 15 min with 750 rpm to achieve the first dilution step (1:100 dilution). This dilution was used for further dilution.
Not all samples mixed well or mixed at all in 0.1% Break Thru 5240. For these samples, 500 μL Neo-wett (Kwizda Agro GmbH) and/or a small amount (knife tip) Metaupon®-OMT (LEUNA Tenside GmbH) were also added to the aqueous solution.
After homogenization 1 mL were transferred into a 1.5 mL tube and were centrifuged for 15 min at 14,000 rpm (Thermo Fisher Scientific, Type Megafuge 8R). The supernatant (=upper phase) was discarded by using a pipette. The tubes were filled up to 1 mL using a sterile aqueous solution containing 0.1% Neo-wett and homogenized by vortexing.
To assess fungal viability, a method based on flow cytometry was used.

## 2-(2-Ethoxyethoxy)ethyl acetate; Diethylene glycol monoethyl ether acetate [n-Butyldiglycolacetat]
[1]; P. lilacinum strain 251 in the liquid, day 1
  spore viability [%] at day 1: 93.2%
[1]; storage at 30° C., 87-92 d
  spore viability [%] after 3 m (87-92 d): 82.7%
[1]; storage at 30° C., 35 d
  spore viability [%] after 5 w (35 d): 89.3%

## CCCCOCCO [Butylcellosolve, Ethylenglycolmonobutylether, reference compound]
[1]; text summary of Table I
  decline in spore viability at day 1 and after storage: steep decline in spore viability

## CCOCCOCCO [Carbitol, Diethylenglycolmonoethyl ether, reference compound]
[2]
  spore viability [%] after 1 m (27 d): 12.0%
  spore viability [%] after 2 w (~14 d): 13.7%
  spore viability [%] at day 1: 78.0%

## CCCCCCOCCO [Hexylcellosolve, Ethylenglycolmonohexylester, reference compound]
[1]
  spore viability [%] after 3 m (87-92 d): 6.0%
  spore viability [%] after 5 w (35 d): 27.4%
  spore viability [%] at day 1: 79.5%
[1]; text summary of Table I
  decline in spore viability at day 1 and after storage: steep decline in spore viability

## CCCOCCO [Propylcellosolve, Ethylenglycolmonopropylether, reference compound]
[1]
  spore viability [%] after 3 m (87-92 d): 0.6%
  spore viability [%] after 5 w (35 d): 8.1%
  spore viability [%] at day 1: 76.2%
[1]; text summary of Table I
  decline in spore viability at day 1 and after storage: steep decline in spore viability

## COCCOCCOCCOCCOC [Tetraglyme, Tetraethylenglycol diether]
[1]
  spore viability [%] after 1 m (27-28 d): 94.8%
  spore viability [%] after 2 m (51-55 d): 93.2%
  spore viability [%] after 2 w (12-15 d): 97.6%
  spore viability [%] after 7 m (210 d): 83.5%
  spore viability [%] at day 1: 97.2%
[1]; text summary of Table I
  spore viability after storage for 7 months at 30° C. (in words): exceptional spore viability

## CCCCOCCOCCOCCO [Triethylenglycol monobutylether, Triethylenglycol-monobutylether]
[1]; Purpureocillium lilacinum
  spore viability [%] after 1 m (27-28 d): 57.5%
  spore viability [%] after 3 m (87-92 d): 50.8%
[1]; Purpureocillium lilacinum, 1 d
  spore viability [%] at day 1: 77.5%

## Polyethylene glycol Monooleate [Alkamuls A]
[2]
  spore viability [%] after 1 m (27 d): 90.7%
  spore viability [%] after 2 w (~14 d): 93.0%
  spore viability [%] at day 1: 94.4%

## Polyethyleneglycol-400 monolaurate [Radiasurf 7423]
[2]
  spore viability [%] after 1 m (27 d): 42.3%
  spore viability [%] after 2 w (~14 d): 58.0%
  spore viability [%] at day 1: 86.7%
[1]
  spore viability [%] after 1 m (27-28 d): 93.8%
  spore viability [%] after 2 m (51-55 d): 79.7%
  spore viability [%] after 2 w (12-15 d): 91.4%
  spore viability [%] after 7 m (210 d): 36.9%
  spore viability [%] at day 1: 90.8%
  spore viability after storage for 2 or 3 months, respectively: ≥ 80%

## Polyethylenglycol- 300 [Pluriol E300]
[2]
  spore viability [%] after 1 m (27 d): 87.0%
  spore viability [%] after 3 months: 45.0* %
  spore viability [%] at day 1: 96.0%

## Tween 80
[2]
  spore viability [%] after 1 m (27 d): 72.0%
  spore viability [%] after 2 w (~14 d): 76.4%
  spore viability [%] at day 1: 96.2%
